Reference: US8959984B2, “Proteome-wide quantification of small molecule binding to cellular target proteins” (priority 2007, dated 2015)
Values joined by “and” are separate entries in the source; they are usually repeats but may differ in a detail not shown here. Identical values can stand only once. Like-named read-outs stand apart in the source and are kept apart here.

Experiments:
LYN = LYN (Homo sapiens, UniProt P07948); assay: binding to AX14596 beads (HeLa lysate, SILAC MS)
RIPK2 = RIPK2 (Homo sapiens, UniProt O43353); assay: binding to AX14596 beads (HeLa lysate, SILAC MS)
ACAD10 = molecular target: T1, ACAD10 (Homo sapiens, UniProt Q6JQN1); assay: binding to AX14596 beads (HeLa lysate, SILAC MS)
T1 sequence (Q6JQN1 1-1059): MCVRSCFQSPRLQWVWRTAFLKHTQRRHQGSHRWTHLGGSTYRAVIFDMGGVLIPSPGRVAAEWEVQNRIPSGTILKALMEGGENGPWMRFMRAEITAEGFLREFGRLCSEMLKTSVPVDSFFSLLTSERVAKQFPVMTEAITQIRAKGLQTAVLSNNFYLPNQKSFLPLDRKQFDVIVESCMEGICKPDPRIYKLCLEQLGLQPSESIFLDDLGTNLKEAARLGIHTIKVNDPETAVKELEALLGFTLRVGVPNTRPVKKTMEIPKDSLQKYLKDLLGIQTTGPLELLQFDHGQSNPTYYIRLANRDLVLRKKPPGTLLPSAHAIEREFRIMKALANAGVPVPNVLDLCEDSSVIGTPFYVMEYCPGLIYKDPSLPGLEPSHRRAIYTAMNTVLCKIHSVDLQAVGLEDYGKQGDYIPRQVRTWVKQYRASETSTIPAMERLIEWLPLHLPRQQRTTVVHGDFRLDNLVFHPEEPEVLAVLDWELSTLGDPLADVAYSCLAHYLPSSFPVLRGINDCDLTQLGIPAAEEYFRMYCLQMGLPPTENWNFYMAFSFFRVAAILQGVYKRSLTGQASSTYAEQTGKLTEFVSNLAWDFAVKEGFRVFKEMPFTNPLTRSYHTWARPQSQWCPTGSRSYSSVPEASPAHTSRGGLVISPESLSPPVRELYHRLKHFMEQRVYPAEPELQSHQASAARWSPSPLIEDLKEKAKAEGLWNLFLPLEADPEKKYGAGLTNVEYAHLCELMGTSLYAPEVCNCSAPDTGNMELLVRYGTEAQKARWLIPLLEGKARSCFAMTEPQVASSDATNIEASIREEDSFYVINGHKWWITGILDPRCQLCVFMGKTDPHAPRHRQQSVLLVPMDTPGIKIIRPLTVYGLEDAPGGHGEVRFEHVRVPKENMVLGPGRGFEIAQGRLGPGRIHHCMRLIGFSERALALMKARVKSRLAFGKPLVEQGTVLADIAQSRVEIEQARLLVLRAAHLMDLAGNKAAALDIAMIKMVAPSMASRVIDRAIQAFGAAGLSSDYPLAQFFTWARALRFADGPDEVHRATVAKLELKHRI

[1] = molecular target: T2, hydroxyacyl Coenzyme A dehydrogenase, type II isoform 1 (Homo sapiens, UniProt Q99714); assay: binding to immobilized V16742 (IVA1/IVA2, HeLa lysate, MS)
T2 construct: endogenous in cells; host or cells: HeLa S3
T2 sequence (Q99714 1-261): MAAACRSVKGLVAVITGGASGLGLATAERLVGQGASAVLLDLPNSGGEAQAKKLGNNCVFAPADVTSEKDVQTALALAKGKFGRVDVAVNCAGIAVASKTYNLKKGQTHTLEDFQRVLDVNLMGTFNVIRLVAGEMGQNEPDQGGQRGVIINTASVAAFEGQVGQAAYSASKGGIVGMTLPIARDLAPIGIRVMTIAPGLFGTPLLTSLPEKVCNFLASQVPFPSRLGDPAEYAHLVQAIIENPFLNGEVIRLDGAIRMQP

Chain of RIPK2 (O43353 whole entry): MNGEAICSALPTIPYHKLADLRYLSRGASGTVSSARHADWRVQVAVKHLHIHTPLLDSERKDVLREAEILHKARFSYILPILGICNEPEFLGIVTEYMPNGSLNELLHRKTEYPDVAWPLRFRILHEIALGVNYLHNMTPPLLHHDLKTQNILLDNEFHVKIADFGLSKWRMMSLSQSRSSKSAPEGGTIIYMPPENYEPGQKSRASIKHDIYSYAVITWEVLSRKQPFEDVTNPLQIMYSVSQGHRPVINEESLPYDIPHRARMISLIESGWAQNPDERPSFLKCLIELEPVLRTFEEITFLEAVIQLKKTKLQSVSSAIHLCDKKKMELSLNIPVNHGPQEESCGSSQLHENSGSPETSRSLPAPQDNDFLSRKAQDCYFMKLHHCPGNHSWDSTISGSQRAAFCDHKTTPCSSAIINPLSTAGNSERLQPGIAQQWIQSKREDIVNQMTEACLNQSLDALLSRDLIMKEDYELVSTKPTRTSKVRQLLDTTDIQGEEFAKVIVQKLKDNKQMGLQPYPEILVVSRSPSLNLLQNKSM
Chain of LYN (P07948 whole entry): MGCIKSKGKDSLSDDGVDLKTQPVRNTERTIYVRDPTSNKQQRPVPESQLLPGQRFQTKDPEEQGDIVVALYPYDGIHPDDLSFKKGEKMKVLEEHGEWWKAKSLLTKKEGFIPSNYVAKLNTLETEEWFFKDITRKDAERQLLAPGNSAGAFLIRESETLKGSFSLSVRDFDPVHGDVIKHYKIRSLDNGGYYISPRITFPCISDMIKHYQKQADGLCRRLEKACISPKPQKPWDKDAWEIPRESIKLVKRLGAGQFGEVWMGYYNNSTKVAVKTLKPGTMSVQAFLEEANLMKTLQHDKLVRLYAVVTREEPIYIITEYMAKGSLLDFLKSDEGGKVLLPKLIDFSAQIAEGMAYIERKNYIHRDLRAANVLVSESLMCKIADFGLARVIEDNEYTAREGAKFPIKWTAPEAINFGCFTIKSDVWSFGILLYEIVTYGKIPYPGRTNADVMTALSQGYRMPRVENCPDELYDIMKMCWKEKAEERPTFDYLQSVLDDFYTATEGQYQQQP

For `COc1cc2ncnc(Nc3ccc(F)c(Cl)c3)c2cc1OCCCN` [AX14596], the Ki (LYN) was 195 µM, the “r (3 mg/1 mg lysate)” value (LYN) was 2.14 and the “r (5 h/2.5 h inc. time)” value (LYN) was 0.98. For the same compound, the “rAVERAGE (2. inc/1. inc)” value (LYN) was 0.66, the “rAVERAGE (control/1. inc)” value (LYN) was 0.07 and the “% BOUND” value (LYN; bound to AX14596 beads) was 34%. The Ki (RIPK2) was 6.2 µM and 6.19 µM, the “r (3 mg/1 mg lysate)” value (RIPK2) was 2.68 and the “r (5 h/2.5 h inc. time)” value (RIPK2) was 0.90. For the same compound, the “rAVERAGE (2. inc/1. inc)” value (RIPK2) was 0.06, the “rAVERAGE (control/1. inc)” value (RIPK2) was 0.02 and the “% BOUND” value (RIPK2; bound to AX14596 beads) was 94%. The Ki (ACAD10) was 108 µM, the “r (3 mg/1 mg lysate)” value (ACAD10) was 8.45 and the “r (5 h/2.5 h inc. time)” value (ACAD10) was 0.48. For the same compound, the “rAVERAGE (2. inc/1. inc)” value (ACAD10) was 0.52 and the “rAVERAGE (control/1. inc)” value (ACAD10) was 0.08.
For `CC(C)n1c(=O)ccc2cnc(Nc3ccc(OCCN)cc3)nc21` [V16742], the “Percent bound at various 16742 conc” value ([1]; Experiment 1, 1.87 μM 16742) was 4.41%, the “Percent bound at various 16742 conc” value ([1]; Experiment 1, 8.74 μM 16742) was 4.37% and the “Percent bound at various 16742 conc” value ([1]; Experiment 1, 52 μM 16742) was 62.08%. The Kd ([1]; Experiment 1, read-out: Kd) was 42.7 µM, the “Percent bound at various 16742 conc” value ([1]; Experiment 2, 1.87 μM 16742) was 8.75% and the “Percent bound at various 16742 conc” value ([1]; Experiment 2, 8.74 μM 16742) was 10.79%. For the same compound, the “Percent bound at various 16742 conc” value ([1]; Experiment 2, 52 μM 16742) was 41.03%, the Kd ([1]; Experiment 2, read-out: Kd) was 72.8 µM and the Kd ([1]; average of two experiments, read-out: Kd Avg) was 57.7 µM.
